Activity calls are given as the source filed them. The rule behind the calls is not given here.
Assays:
LX-2 [1] = assay: Inhibition of TGF-beta1-induced human LX2 activation at 20 uM pretreated with TGF-beta1 for 1 hr followed by compound addition and measured after 72 hrs by CCK-8 assay relative to control; type: functional
[2] = Antiproliferative activity against human LX2 cells assessed as cell survival rate at 20 uM incubated for 72 hrs by CCK-8 assay; type: toxicity, cell-based; settings: LX-2 cells, read-out: Activity
[3] = Antiproliferative activity against human LO2 cells assessed as inhibition of cell growth incubated for 72 hrs by CCK-8 assay; type: toxicity, cell-based; settings: LO2 (L02) cells
LX-2 [4] = assay: Antifibrotic activity against TGF-beta1 induced human LX2 cells assessed as reduction of fibronectin expression at 20 uM pretreated with TGF-beta1 for 1 hr followed by compound addition and measured after 24 hrs by Western blot analysis; type: functional, cell-based
LX-2 [5] = assay: Antifibrotic activity against TGF-beta1 induced human LX2 cells assessed as reduction of alpha-SMA expression at 20 uM pretreated with TGF-beta1 for 1 hr followed by compound addition and measured after 24 hrs by Western blot analysis; type: functional, cell-based
LX-2 [6] = assay: Downregulation of alpha-SMA mRNA expression in TGF-beta1-induced human LX2 cells at 20 uM pretreated with TGF-beta1 for 1 hr followed by compound addition and measured after 24 hrs by qRT-PCR analysis; type: functional, cell-based
LX-2 [7] = assay: Downregulation of fibronectin mRNA expression in TGF-beta1-induced human LX2 cells at 20 uM pretreated with TGF-beta1 for 1 hr followed by compound addition and measured after 24 hrs by qRT-PCR analysis; type: functional, cell-based
LX-2 [8] = assay: Effect on alpha-SMA protein level in TGF-beta1-induced human LX2 cells at 20 uM pretreated with TGF-beta1 for 1 hr followed by compound addition and measured after 24 hrs by Western blot analysis; type: functional, cell-based
LX-2 [9] = assay: Effect on fibronectin protein level in TGF-beta1-induced human LX2 cells at 20 uM pretreated with TGF-beta1 for 1 hr followed by compound addition and measured after 24 hrs by Western blot analysis; type: functional, cell-based
LX-2 [10] = assay: […] of alpha-SMA mRNA expression in TGF-beta1-induced human LX2 cells at 20 uM pretreated with TGF-beta1 for 1 hr followed by compound addition and measured after 24 hrs by qRT-PCR analysis; type: functional, cell-based
[11] = Toxicity in CCL4-induced po dosed C57BL/6J mouse assessed as inflammatory cell infiltration in spleen at 15 to 30 mg/kg, po by H and E staining based analysis; type: organism-based; settings: in vivo, dose 15-30 mg/kg
Mus musculus [12] = assay: Antifibrotic activity against CCL4-induced C57BL/6J mouse hepatic fibrosis model assessed as reduction in CD69/CD8 in […] cell cells at 30 mg/kg, po measured for 3 weeks by flow cytometry analysis relative to control; type: functional; design: scale not given: the % may be the effect or the level left
[13] = Toxicity in CCL4-induced po dosed C57BL/6J mouse assessed as inflammatory cell infiltration in heart at 15 to 30 mg/kg, po by H and E staining based analysis; type: organism-based; settings: in vivo, dose 15-30 mg/kg
Mus musculus [14] = assay: Antifibrotic activity against CCL4-induced C57BL/6J mouse hepatic fibrosis model assessed as reduction in CD11b/Gr-1 in MDSC cells at 30 mg/kg, po measured for 3 weeks by flow cytometry analysis relative to control; type: functional; design: scale not given: the % may be the effect or the level left
[15] = Toxicity in CCL4-induced po dosed C57BL/6J mouse assessed as inflammatory cell infiltration in lung at 15 to 30 mg/kg, po by H and E staining based analysis; type: organism-based; settings: in vivo, dose 15-30 mg/kg
Mus musculus [16] = assay: Antifibrotic activity against CCL4-induced C57BL/6J mouse hepatic fibrosis model assessed as reduction in CD69/CD4 in Th1 cell cells at 30 mg/kg, po measured for 3 weeks by flow cytometry analysis relative to control; type: functional; design: scale not given: the % may be the effect or the level left
Mus musculus [17] = assay: Antifibrotic activity against CCL4-induced C57BL/6J mouse hepatic fibrosis model assessed as reduction in F4/80+CD11b+ in macrophage at 30 mg/kg, po measured for 3 weeks by flow cytometry analysis relative to control; type: functional; design: scale not given: the % may be the effect or the level left

SMILES	inhibition at 20 µM (LX-2 [1])	viability at 72 h, 20 µM [2]	other results
COc1ccc(/C=C/C(=O)Nc2ccccc2C(=O)NC2CC2)cc1OC	1.5%	71.5%	–
CNC(=O)c1cccc(NC(=O)/C=C/c2ccc(OC)c(OC)c2)c1	28.5%	79.7%	–
COc1ccc(/C=C/C(=O)Nc2ccc(C(=O)O)cc2)cc1OC	31%	81.5%	–
COc1cccc(/C=C/C(=O)Nc2ccc(C(=O)NC3CCCC3)cc2)c1OC	17.3%	77%	–
COc1cccc(/C=C/C(=O)Nc2cccc(C(=O)NC3CCCC3)c2)c1	25.3%	56%	–
COc1ccc(/C=C/C(=O)Nc2ccc(C(=O)NC3CCNC3)cc2)cc1OC (stereo not given)	17%	80.3%	–
COc1ccc(/C=C/C(=O)Nc2ccc(C(=O)NC3CCCCC3)cc2)cc1OC	14%	81.3%	–
CNC(=O)c1ccccc1NC(=O)/C=C/c1ccc(OC)c(OC)c1	13%	67%	–
COc1ccc(/C=C/C(=O)Nc2ccc(C(=O)NC3CCC3)cc2)cc1OC	27%	68.3%	–
COc1ccccc1/C=C/C(=O)Nc1cccc(C(=O)NC2CCCC2)c1	17.3%	66%	–
COc1ccc(/C=C/C(=O)Nc2ccc(C(=O)NC3CCCC3)cc2)cc1OC	48.3%	46%	IC50 at 72 h [3]: 13.3 µM; Activity (LX-2 [4]): Active; Activity (LX-2 [5]): Active
COc1ccc(/C=C/C(=O)Nc2ccccc2C(=O)NC2CCC2)cc1OC	19%	71%	–
COc1ccc(CCC(=O)Nc2cccc(C(=O)NC3CCCC3)c2)cc1OC	13.8%	71.7%	–
COc1cccc(/C=C/C(=O)Nc2ccc(C(=O)NC3CCCC3)cc2)c1	19%	70.8%	–
COc1ccc(/C=C/C(=O)Nc2cccc(C(=O)NC3CCC3)c2)cc1OC	31.7%	60%	–
COc1ccc(/C=C/C(=O)Nc2ccc(C(=O)O)nc2)cc1OC	14%	98%	–
COc1ccc(/C=C/C(=O)Nc2cccc(C(=O)NC3CCCC3)c2)cc1OC	53.8%	44.3%	IC50 at 72 h [3]: 8.4 µM; Activity (LX-2 [4]): Active; Activity (LX-2 [5]): Active
O=C(/C=C/c1ccc2c(c1)OCO2)Nc1ccc(C(=O)NC2CCCC2)cc1	22%	78%	–
COc1ccc(CCC(=O)Nc2ccc(C(=O)NC3CCCC3)cc2)cc1OC	3%	71.7%	–
COc1ccc(/C=C/C(=O)Nc2cccc(C(=O)O)c2)cc1OC	26%	79.3%	–

SMILES	inhibition at 20 µM (LX-2 [1])	viability at 72 h, 20 µM [2]	other results
COc1ccccc1/C=C/C(=O)Nc1ccc(C(=O)NC2CCCC2)cc1	70.3%	70.8%	Activity (LX-2 [6]): Active; Activity (LX-2 [7]): Active; Activity (LX-2 [8]): inactive; Activity (LX-2 [9]): inactive
COc1ccc(OC)c(/C=C/C(=O)Nc2ccc(C(=O)NC3CCCC3)cc2)c1	26.3%	63%	–
COc1ccc(/C=C/C(=O)Nc2ccc(C(=O)NC3CC3)cc2)cc1OC	24.5%	74.3%	–
O=C(/C=C/c1ccc2c(c1)OCCO2)Nc1ccc(C(=O)NC2CCCC2)cc1	18%	69.3%	–
COc1ccc(/C=C/C(=O)Nc2cccc(C(=O)NC3CCCCC3)c2)cc1OC	49.6%	39.8%	–
COc1ccc(/C=C/C(=O)Nc2ccc(C(=O)NC3CCNC3)nc2)cc1OC (stereo not given)	19.5%	76.5%	–
COc1ccc(/C=C/C(=O)Nc2ccccc2C(=O)N2CCCCC2)cc1OC	13%	88.7%	–
COc1ccc(/C=C/C(=O)Nc2ccccc2C(=O)NC2CCCCC2)cc1OC	20%	45.3%	–
Cc1cc(C)cc(/C=C/C(=O)Nc2ccc(C(=O)NC3CCCC3)cc2)c1	3%	80.5%	–
COc1ccc(/C=C/C(=O)Nc2ccc(C(=O)NC3CCCC3)cc2)cc1O	29.5%	66.3%	–
COc1ccc(/C=C/C(=O)Nc2ccc(C(=O)NC3CCCC3)nc2)cc1OC	41%	64.5%	Activity (LX-2 [10]): Active
COc1ccc(/C=C/C(=O)Nc2cccc(C(=O)N3CCCCC3)c2)cc1OC	17.7%	68.8%	–
CNC(=O)c1ccc(NC(=O)/C=C/c2ccc(OC)c(OC)c2)cc1	24%	79.5%	–
COc1ccc(/C=C/C(=O)Nc2ccc(C(=O)NC3CCCC3)cc2)cc1	32%	50.3%	–
COc1cc(/C=C/C(=O)Nc2ccc(C(=O)NC3CCCC3)cc2)cc(OC)c1	36.7%	69.7%	IC50 at 72 h [3]: 17.3 µM; Activity (LX-2 [4]): Active; Activity (LX-2 [5]): Active
COc1ccc(/C=C/C(=O)Nc2cccc(C(=O)NC3CC3)c2)cc1OC	30%	65.3%	–
COc1ccc(/C=C/C(=O)Nc2ccccc2C(=O)NC2CCCC2)cc1OC	27%	88%	–
COc1ccc(/C=C/C(=O)Nc2ccc(C(=O)N3CCCCC3)cc2)cc1OC	29.5%	74%	–
COc1ccc(/C=C/C(=O)Nc2ccccc2C(=O)O)cc1OC [TRANILAST]	17.5%	80%	Activity [11]: Non-Toxic; Activity (Mus musculus [12]): 1.92%; IC50 at 72 h [3]: 82.3 µM; Activity [13]: Non-Toxic; Activity (Mus musculus [14]): 2.87%; Activity [15]: Non-Toxic; Activity (Mus musculus [16]): 1.66%; Activity (Mus musculus [17]): 5.09%
